Assay results as given in ChEMBL document CHEMBL4261619, “Sentulic acid isolated from Sandoricum koetjape Merr attenuates lipopolysaccharide and interferon gamma co-stimulated nitric oxide production in murine macrophage RAW264 cells” (Bioorg Med Chem Lett, 2018).
Active and inactive are the calls of the source. No cut-off for these calls is given here.

How the values were obtained:
Type in all cases: cell-based
[1] = molecular target: T1, Toll-like receptor 4 (Mus musculus) (UniProt Q9QUK6); test: Inhibition of LPS binding to TLR4 in IFNgamma-stimulated mouse RAW264.7 cells assessed as suppression of IL6 mRNA expression at 100 uM by qRT-PCR analysis
T1 sequence (whole entry): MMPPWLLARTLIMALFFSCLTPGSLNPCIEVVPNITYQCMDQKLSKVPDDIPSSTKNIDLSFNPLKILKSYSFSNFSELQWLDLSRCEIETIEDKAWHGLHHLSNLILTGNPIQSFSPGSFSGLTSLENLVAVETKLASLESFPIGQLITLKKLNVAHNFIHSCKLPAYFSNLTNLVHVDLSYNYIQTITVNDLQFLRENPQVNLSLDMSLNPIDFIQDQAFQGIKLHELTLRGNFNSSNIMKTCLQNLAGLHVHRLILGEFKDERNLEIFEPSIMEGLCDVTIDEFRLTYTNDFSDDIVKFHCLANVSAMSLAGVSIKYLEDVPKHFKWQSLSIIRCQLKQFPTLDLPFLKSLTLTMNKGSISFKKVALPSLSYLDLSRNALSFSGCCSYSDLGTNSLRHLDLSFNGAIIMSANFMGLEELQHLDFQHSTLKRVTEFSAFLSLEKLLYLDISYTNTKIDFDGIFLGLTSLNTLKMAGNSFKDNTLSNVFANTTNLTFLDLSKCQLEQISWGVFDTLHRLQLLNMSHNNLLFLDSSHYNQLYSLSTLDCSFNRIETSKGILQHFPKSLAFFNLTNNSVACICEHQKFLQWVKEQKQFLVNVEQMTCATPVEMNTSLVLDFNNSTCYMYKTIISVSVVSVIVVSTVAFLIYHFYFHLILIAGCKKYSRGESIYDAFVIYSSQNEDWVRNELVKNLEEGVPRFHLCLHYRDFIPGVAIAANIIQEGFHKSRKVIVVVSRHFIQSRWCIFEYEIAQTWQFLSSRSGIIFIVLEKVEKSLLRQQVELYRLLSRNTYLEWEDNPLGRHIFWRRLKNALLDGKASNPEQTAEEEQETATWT

[2] = molecular target: T1, Toll-like receptor 4 (Mus musculus); test: Inhibition of LPS binding to TLR4 in IFNgamma-stimulated mouse RAW264.7 cells assessed as suppression of IL-12 mRNA expression at 100 uM by qRT-PCR analysis
[3] = molecular target: T1, Toll-like receptor 4 (Mus musculus); test: Inhibition of LPS binding to TLR4 in IFNgamma-stimulated mouse RAW264.7 cells assessed as reduction in nitric oxide production pretreated for 2 hrs followed by LPS/IFNgamma stimulation and measured after 24 hrs
[4] = molecular target: T1, Toll-like receptor 4 (Mus musculus); test: Displacement of Alexa fluor 488-conjugated LPS from TLR4 in mouse RAW264.7 cells at 100 uM pretreated for 2 hrs followed by Alexa fluor 488-conjugated LPS addition and measured after 30 mins by Hoechst 33342 staining based assay relative to control
[5] = molecular target: T1, Toll-like receptor 4 (Mus musculus); test: Inhibition of LPS binding to TLR4 in IFNgamma-stimulated mouse RAW264.7 cells assessed as suppression of COX2 mRNA expression at 100 uM by qRT-PCR analysis
[6] = system: RAW264.7; test: Inhibition of IFNgamma binding to IFNGR in LPS-stimulated mouse RAW264.7 cells assessed as effect on ratio of phosphorylated Stat1 to total Stat1 at 100 uM measured after 15 mins by Western blot analysis relative to beta-actin (reference value: 1.3)

## C=C(C)[C@@H]1CC[C@]2(C)[C@H](CC=C3[C@@H]4CC(C)(C)CC[C@]4(C)CC[C@]32C(=O)O)[C@@]1(C)CCC(=O)O
[1]
  inhibition: Active
[2]
  inhibition: Active
[3]
  inhibition: Dose-dependent effect
[4]
  inhibition: 43%
[5]
  inhibition: inactive
[6]
  fold change (FC): 1.2
